Structures can show the parent of a compound that is named as a salt.
Experiments:
[1] = system: MCF-7A, MCF-7K, T47D and ZR-75-1 cells; assay: Growth factors as substitutes for E2 with human breast cancer cells in CDE-horse serum; assay type: cell-based; conditions: EGF, TGFα growth saturating; IGF-I 1.0 μg/mL; IGF-II up to 500 ng/mL; insulin 10 ng/mL to 10 μg/mL
LNCaP cells = assay: Cell growth assay, LNCaP human prostatic carcinoma cells; assay type: cell-based
Procedure: Specific modifications of the customary cell growth assays were required for assays done under iron-restricted conditions. […] Serum-free components were added to “low-Fe” D-MEM/F-12 at double the concentrations needed (2X) or to “standard” D-MEM/F-12 at (2X) as the experiments dictated. Each assay dish received 1.0 mL of this solution. Next, the cells to be used in the assays were washed three times in either “low-Fe” medium or “standard” medium depending upon the experimental protocol.

T47D cells = assay: Cell growth assay, T47D human breast cancer cells
Source text: (§1) General Cell Culture—Growth Assay Methods.
(§2) General Cell Culture—Harvest and Counting Cells.
(§3) General Cell Culture—Quantification of Growth.

GH4C1 cells = assay: Cell growth assay, GH4C1 rat pituitary tumor cells; conditions: 50% CDE-horse serum
Source text: as §1, §2, §3

MTW9/PL2 cells = assay: Cell growth assay, MTW9/PL2 rat mammary tumor cells; conditions: 50% (v/v) CDE-horse serum
Source text: as §1, §2, §3

H301 cells = assay: Cell growth assay, H301 kidney tumor cells; conditions: 50% (v/v) CDE-horse serum
Source text: as §1, §2, §3

[2] = target: T1, estrogen receptors of MTW9/PL2 cells (Rattus norvegicus, UniProt P06211); assay: ^3H-E2 binding to MTW9/PL2 cells; conditions: 5 nM ^3H-E2, 37° C., 100-fold molar excess of unlabeled steroid
T1 construct: endogenous in cells; host or cells: MTW9/PL2 rat mammary tumor cells (whole cells; some values from extracts of the parental MTW9/PL line)
T1 sequence (P06211 whole entry): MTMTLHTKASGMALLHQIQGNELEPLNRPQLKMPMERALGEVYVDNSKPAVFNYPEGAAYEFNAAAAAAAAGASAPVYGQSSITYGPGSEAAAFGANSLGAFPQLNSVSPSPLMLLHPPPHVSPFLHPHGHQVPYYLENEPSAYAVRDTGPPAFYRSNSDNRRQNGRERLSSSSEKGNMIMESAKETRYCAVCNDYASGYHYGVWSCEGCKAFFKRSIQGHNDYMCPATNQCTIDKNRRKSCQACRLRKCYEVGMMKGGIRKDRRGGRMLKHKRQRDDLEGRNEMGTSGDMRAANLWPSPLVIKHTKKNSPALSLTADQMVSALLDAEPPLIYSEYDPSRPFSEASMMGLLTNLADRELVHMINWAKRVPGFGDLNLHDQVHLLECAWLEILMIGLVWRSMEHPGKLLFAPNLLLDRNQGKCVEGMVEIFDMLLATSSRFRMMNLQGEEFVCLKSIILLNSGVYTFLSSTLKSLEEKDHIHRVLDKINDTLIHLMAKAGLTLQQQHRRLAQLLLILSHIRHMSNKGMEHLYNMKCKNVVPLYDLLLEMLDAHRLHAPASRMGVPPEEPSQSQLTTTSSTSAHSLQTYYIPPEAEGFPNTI

Compound: EGF: epidermal growth factor from mouse submaxillary gland (NSYPGCPSSYDGYCLNGGVCMHIESLDSYTCNCVIGYSGDRCQTRDLRWWELR; not fully specified; Epidermal growth factor; UniProt P01132 977-1029, looked up)
- reversal of the CDE-serum inhibition (substitute for E2) [1]: did not reverse the effects of the serum-borne inhibitor

Compound: CC(=O)N(O)CCCCCNC(=O)CCC(=O)N(O)CCCCCNC(=O)CCC(=O)N(O)CCCCCN [deferoxamine, deferoxamine mesylate]
- growth induced by chelator (LNCaP cells; CAPM without deferoxamine plus […] Fe (III), 0.5 μM chelator): 3.5 CPD

Compound: CC/C(=C(\c1ccccc1)c1ccc(OCCN(C)C)cc1)c1ccccc1 [tamoxifen, Tamoxifen Citrate]
- estrogen reversal of the tamoxifen inhibition (T47D cells; 1.0×10^−7 M tamoxifen, serum-free defined medium): estrogens completely reverse the effect
- cytotoxicity (T47D cells; concentrations above 1.0×10^−7 M, serum-free DDM-2MF): Higher concentrations were cytotoxic
- concentration that completely inhibited (arrested) growth (T47D cells; serum-free DDM-2MF without any source of estrogens): 100 nM

Compound: C[C@]12CC[C@@H]3c4ccc(O)cc4CC[C@H]3[C@@H]1C[C@@H](O)[C@@H]2O [E3, Estriol]
- growth effect of steroid hormone, result in words (GH4C1 cells): substantially less effective
- concentration for optimum growth (MTW9/PL2 cells): 10 nM

Compound: insulin: bovine insulin
- reversal of the CDE-serum inhibition (substitute for E2) [1]: did not reverse the inhibition caused by 50% (v/v) CDE serum

Compound: IGF-II: insulin-like growth factor II
- reversal of the CDE-serum inhibition (substitute for E2) [1]: did not reverse the inhibitory effects of 10 to 50% (v/v) CDE serum

Compound: C[C@]12CC[C@@H]3c4ccc(O)cc4CC[C@H]3[C@@H]1CCC2=O [E1, Estrone]
- concentration required for optimum growth (GH4C1 cells): 10 nM
- lowest concentration that gave significant (p<0.05) growth (GH4C1 cells): 1 pM
- concentration for optimum growth (MTW9/PL2 cells): 1 nM
- concentration required to achieve significant (p<0.05) growth (H301 cells): 100 pM

Compound: C[C@]12CC[C@H]3[C@@H](CCC4=CC(=O)CC[C@@]43C)[C@@H]1CC[C@@H]2O [T, Testosterone]
- growth effect of steroid hormone, result in words (GH4C1 cells): ineffective
- reduction of ^3H-E2 total binding by unlabeled steroid [2]: did not displace ^3H-E2 total binding significantly
- growth effect of steroid hormone, result in words (T47D cells; 50% (v/v) CDE horse serum, 14 days): promoted growth but only at supraphysiological concentrations
- growth effect of steroid hormone, result in words (H301 cells): inactive

Compound: TGFα: transforming growth factor α, EGF analogue
- reversal of the CDE-serum inhibition (substitute for E2) [1]: did not reverse the effects of the serum-borne inhibitor

Compound: CC/C(=C(/CC)c1ccc(O)cc1)c1ccc(O)cc1 [DES, Diethylstilbestrol]
- reversal of the inhibition caused by CDE-horse serum (LNCaP cells; D-MEM/F-12 with CDE-horse serum, 10 nM steroid): entirely ineffective

Compound: IGF-I: insulin-like growth factor I
- reversal of the CDE-serum inhibition (substitute for E2) [1]: did not reverse the serum inhibition
